Experimental data as given in publication PMC7424564 (Pharmacology Research & Perspectives, 2020).
Values after ≈ are worked out from the molar mass of the structure shown. Values joined by “and” are separate entries in the source; they are usually repeats but may differ in a detail not shown here. Identical values can stand only once. “Also recorded” adds a separate entry of the source. Like-named read-outs stand apart in the source and are kept apart here. Each block holds one compound with its values, some of them ahead of it.

Tests used:
[1] = In vitro metabolism in liver microsomes; assay type: in vitro ADME; conditions: human liver microsomes
Raji cells = experiment: Cell cytotoxicity assay; assay type: cell-based; conditions: Homo sapiens, read-out: cell killing potency (IC50) Raji
CYP2C8 = CYP2C8 (Homo sapiens, UniProt P10632); experiment: In vitro CYP inhibition in human liver microsomes; assay type: in vitro ADME
CYP2C8, sequence (P10632 whole entry): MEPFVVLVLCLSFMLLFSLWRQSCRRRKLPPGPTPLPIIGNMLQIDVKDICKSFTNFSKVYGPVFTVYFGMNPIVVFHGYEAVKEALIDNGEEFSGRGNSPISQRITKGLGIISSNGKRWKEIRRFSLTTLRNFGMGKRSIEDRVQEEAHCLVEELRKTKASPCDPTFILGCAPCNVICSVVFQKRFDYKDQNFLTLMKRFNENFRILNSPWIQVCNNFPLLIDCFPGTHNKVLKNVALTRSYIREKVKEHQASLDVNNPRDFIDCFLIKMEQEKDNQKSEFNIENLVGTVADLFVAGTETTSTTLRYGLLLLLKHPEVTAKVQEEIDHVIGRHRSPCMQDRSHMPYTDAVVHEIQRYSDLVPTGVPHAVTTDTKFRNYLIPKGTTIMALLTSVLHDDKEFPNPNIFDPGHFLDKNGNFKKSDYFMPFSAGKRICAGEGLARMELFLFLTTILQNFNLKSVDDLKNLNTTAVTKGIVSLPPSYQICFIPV

CYP1A2 = CYP1A2 (Homo sapiens, UniProt P05177); experiment: In vitro CYP inhibition in human liver microsomes; assay type: in vitro ADME
CYP1A2, sequence (P05177 whole entry): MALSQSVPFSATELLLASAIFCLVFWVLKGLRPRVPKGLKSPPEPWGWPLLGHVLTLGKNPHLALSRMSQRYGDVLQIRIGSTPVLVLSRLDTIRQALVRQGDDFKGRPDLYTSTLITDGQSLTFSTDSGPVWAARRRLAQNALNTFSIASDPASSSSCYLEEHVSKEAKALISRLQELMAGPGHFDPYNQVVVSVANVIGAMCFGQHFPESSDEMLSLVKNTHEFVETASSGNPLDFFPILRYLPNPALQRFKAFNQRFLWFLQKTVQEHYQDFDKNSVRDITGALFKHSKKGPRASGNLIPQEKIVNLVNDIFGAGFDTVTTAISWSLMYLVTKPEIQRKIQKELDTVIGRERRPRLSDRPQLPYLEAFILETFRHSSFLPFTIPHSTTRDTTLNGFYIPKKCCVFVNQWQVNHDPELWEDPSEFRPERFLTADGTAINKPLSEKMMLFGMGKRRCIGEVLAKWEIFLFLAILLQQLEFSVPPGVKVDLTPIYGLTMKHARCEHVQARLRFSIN

TNF‐α secretion = experiment: Cytokine ELISA, TNF‐α secretion in THP‐1 cells; assay type: cell-based; conditions: Homo sapiens, THP-1, read-out: IC50 TNF‐α secretion
Plasma protein binding [2] = assay type: in vitro ADME; conditions: rat
CYP2D6 = CYP2D6 (Homo sapiens, UniProt P10635); experiment: In vitro CYP inhibition in human liver microsomes; assay type: in vitro ADME
CYP2D6, sequence (P10635 whole entry): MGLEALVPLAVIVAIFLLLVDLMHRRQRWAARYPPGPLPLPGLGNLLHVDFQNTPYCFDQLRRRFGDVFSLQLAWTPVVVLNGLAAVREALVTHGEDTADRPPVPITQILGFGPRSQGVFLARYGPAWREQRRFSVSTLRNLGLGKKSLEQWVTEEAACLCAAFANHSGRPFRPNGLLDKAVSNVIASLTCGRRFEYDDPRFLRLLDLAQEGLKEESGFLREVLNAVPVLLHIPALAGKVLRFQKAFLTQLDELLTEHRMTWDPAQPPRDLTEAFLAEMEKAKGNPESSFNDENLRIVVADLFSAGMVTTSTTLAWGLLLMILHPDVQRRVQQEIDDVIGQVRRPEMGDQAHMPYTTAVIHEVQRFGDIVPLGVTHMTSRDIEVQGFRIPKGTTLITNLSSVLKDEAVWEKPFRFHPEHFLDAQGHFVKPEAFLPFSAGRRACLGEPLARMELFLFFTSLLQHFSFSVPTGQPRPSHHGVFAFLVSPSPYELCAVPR

phospho‐PLCγ2 (Y1217) = experiment: Phospho‐protein analysis in THP‐1 cells; assay type: cell-based; conditions: Homo sapiens, THP-1, 1 h, read-out: IC50 PLCγ2‐phosphorylation (Y1217)
[3] = Toxicological studies in rats; assay type: in vivo; conditions: rats up to 300 mg/kg dose (unpublished observation)
[4] = tested on: TMD‐8 DLBCL xenograft tumor; experiment: TMD‐8 xenograft model; conditions: for tumor growth inhibition: 20 consecutive days
CYP2C19 = CYP2C19 (Homo sapiens, UniProt P33261); experiment: In vitro CYP inhibition in human liver microsomes; assay type: in vitro ADME
CYP2C19, sequence (P33261 whole entry): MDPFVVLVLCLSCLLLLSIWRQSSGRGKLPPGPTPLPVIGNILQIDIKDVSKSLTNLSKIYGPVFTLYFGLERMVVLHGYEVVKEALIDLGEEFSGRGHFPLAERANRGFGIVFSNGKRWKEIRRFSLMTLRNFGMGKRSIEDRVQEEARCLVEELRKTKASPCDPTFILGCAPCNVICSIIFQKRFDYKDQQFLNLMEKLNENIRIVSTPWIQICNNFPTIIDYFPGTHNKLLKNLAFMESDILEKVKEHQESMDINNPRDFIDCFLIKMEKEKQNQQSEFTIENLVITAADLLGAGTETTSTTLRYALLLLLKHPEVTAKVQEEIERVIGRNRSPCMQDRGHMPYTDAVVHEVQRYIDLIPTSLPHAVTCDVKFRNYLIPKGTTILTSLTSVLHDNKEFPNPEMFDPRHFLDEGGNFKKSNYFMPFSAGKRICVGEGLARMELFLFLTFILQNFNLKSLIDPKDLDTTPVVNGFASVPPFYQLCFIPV

[5] = In vitro metabolism in liver microsomes; assay type: in vitro ADME; conditions: mouse liver microsomes
BTK [6] = molecular target: T1, BTK (Homo sapiens, UniProt Q06187); experiment: Fluorescence competition binding assay
T1 sequence (Q06187 whole entry): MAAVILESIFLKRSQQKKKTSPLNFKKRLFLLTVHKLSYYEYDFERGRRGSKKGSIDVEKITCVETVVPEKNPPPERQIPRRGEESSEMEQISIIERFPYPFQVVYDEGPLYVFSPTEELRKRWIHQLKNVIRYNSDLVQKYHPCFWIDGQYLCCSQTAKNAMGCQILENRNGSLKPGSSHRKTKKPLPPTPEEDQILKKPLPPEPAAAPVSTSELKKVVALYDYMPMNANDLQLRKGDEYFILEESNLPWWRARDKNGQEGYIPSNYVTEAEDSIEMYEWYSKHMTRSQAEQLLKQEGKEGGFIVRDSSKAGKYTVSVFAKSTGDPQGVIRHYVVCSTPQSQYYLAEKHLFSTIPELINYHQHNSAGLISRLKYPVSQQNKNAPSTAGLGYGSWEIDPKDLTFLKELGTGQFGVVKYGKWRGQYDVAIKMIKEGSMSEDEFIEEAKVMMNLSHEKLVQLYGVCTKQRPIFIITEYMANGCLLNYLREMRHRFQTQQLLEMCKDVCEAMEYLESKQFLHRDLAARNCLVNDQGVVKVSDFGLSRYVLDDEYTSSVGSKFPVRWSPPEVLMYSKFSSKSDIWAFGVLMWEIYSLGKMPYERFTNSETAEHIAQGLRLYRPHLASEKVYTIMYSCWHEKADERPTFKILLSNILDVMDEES

[7] = In vivo pharmacokinetics in rats; design: species or system male Wistar rats; conditions: rat
BTK‐WT = BTK‐WT (Homo sapiens, UniProt Q06187); experiment: Ki determination with Omnia Tyr peptide kit; assay type: biochemical
BTK‐WT, sequence (Q06187 whole entry): as above

U2932 cells = experiment: Cell cytotoxicity assay; assay type: cell-based; conditions: for IC50: Homo sapiens
phospho‐BTK (Y223) = experiment: Phospho‐protein analysis in THP‐1 cells; assay type: cell-based, human
CYP3A4 = CYP3A4 (Homo sapiens, UniProt P08684); experiment: In vitro CYP inhibition in human liver microsomes; assay type: in vitro ADME
[8] = Caco‐2 permeability/efflux ratio; assay type: in vitro ADME; conditions: human, Caco-2
Caco‐2 cell monolayers = experiment: Caco‐2 permeability/efflux ratio; assay type: in vitro ADME; conditions: Caco2 monolayer
[9] = In vitro metabolism in liver microsomes; assay type: in vitro ADME; conditions: rat liver microsomes
[10] = In vitro metabolism in liver microsomes; assay type: in vitro ADME; conditions: monkey liver microsomes
IL‐8 secretion = experiment: Cytokine ELISA, IL‐8 secretion in TMD8 cells; assay type: cell-based; conditions: Homo sapiens, TMD8, 16 h, read-out: IC50 IL‐8 secretion
HCK = HCK (Homo sapiens, UniProt P08631); experiment: Kinase profiling; assay type: biochemical
HCK, sequence (P08631 whole entry): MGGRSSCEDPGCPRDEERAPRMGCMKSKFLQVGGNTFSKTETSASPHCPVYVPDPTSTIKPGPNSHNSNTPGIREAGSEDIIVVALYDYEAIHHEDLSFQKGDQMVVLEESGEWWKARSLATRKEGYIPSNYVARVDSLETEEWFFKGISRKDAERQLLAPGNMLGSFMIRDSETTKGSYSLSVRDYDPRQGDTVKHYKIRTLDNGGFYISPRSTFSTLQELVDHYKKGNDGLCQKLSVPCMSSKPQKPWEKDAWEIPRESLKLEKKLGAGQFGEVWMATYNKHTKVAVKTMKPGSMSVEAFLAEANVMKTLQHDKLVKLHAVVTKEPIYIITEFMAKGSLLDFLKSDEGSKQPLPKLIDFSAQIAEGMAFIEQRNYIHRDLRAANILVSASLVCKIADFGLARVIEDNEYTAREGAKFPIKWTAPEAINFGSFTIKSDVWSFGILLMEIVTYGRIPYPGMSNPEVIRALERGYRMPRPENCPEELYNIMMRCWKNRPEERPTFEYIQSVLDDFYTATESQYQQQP

TMD8 cells [11] = experiment: Cell washout cytotoxicity assay; conditions: TMD‐8 cells
SCW induced arthritis = experiment: Streptococcal cell wall; assay type: in vivo, Sprague Dawley rats
[12] = In vitro metabolism in liver microsomes; assay type: in vitro ADME; conditions: dog liver microsomes
TEC = TEC (Homo sapiens, UniProt P42680); experiment: Kinase profiling; assay type: biochemical
[13] = In vivo pharmacokinetics in mice; conditions: male, BALB/c, mouse, plasma
IL‐6 secretion = experiment: Cytokine ELISA, IL‐6 secretion in TMD8 cells; conditions: read-out: IC50 IL‐6 secretion, TMD‐8 cells, 16 hours
Plasma protein binding [14] = assay type: in vitro ADME; conditions: human
CYP2C9 = CYP2C9 (Homo sapiens, UniProt P11712); experiment: In vitro CYP inhibition in human liver microsomes; assay type: in vitro ADME
CYP2C9, sequence (P11712 whole entry): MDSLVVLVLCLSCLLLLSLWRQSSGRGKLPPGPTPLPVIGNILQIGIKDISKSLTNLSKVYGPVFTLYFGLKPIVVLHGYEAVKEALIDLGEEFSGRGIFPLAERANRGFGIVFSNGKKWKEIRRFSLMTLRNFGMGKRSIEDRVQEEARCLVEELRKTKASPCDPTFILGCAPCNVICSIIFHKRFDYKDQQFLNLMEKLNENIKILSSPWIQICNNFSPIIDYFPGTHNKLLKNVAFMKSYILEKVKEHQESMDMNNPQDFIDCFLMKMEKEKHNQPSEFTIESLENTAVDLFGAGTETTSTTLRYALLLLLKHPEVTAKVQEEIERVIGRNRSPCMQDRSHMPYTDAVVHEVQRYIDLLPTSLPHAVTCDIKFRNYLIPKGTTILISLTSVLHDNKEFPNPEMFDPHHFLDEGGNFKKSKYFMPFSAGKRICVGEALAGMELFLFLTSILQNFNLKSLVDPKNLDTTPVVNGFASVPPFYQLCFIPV

BTK [15] = molecular target: T1, BTK; experiment: Receptor residence time after washout in THP‐1 cells; assay type: binding; conditions: 500 nmol/L for 1 hour, 24 hours, densitometric scanning
BTK [16] = molecular target: T1, BTK; experiment: Kinase profiling; assay type: biochemical
JAK3 = JAK3 (Homo sapiens, UniProt P52333); experiment: Kinase profiling; assay type: biochemical
JAK3, sequence (P52333 whole entry): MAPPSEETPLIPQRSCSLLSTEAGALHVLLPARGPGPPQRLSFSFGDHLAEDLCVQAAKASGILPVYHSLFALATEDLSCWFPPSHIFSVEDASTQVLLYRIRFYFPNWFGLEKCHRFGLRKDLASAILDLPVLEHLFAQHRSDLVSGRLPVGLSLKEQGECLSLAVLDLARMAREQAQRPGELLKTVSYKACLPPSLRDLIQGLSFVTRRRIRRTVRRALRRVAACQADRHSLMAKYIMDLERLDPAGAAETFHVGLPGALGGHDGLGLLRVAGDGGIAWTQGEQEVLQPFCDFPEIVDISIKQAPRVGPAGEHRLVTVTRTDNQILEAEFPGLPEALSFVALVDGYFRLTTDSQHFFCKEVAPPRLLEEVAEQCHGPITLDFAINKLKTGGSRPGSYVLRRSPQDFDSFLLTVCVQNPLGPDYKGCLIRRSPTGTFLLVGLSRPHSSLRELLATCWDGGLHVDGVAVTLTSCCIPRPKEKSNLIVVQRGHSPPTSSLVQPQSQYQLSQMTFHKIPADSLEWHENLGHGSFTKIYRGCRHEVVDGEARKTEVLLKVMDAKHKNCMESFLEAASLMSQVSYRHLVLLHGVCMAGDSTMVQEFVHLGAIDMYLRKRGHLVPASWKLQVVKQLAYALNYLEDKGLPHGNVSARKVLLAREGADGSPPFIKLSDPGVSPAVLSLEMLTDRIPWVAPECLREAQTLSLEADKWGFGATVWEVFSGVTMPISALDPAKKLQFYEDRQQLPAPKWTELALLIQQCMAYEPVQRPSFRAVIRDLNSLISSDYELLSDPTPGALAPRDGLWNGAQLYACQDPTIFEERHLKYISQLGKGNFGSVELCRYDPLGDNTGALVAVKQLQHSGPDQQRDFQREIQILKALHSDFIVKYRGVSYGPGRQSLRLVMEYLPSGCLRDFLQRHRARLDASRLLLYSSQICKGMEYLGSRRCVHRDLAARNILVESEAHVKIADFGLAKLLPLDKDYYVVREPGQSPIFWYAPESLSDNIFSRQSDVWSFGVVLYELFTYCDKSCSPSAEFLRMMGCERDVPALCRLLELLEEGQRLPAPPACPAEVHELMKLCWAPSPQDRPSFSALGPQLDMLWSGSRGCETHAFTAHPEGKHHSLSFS

mutant BTK (C481S) [17] = molecular target: mutant BTK (C481S) (Homo sapiens, UniProt Q06187, C481S); experiment: BTK enzyme activity assay; assay type: biochemical
mutant BTK (C481S) (Homo sapiens, UniProt Q06187, C481S), sequence (Q06187 whole entry C481S): as the sequence (Q06187 whole entry) above, with C481S counted along it

TMD8 cells [18] = experiment: Cell cytotoxicity assay; assay type: cell-based; conditions: Homo sapiens, TMD8, 96 h, read-out: IC50 cell proliferation TMD8
pH dependent solubility = assay type: physicochemical
[19] = tested on: collagen‐induced arthritis (CIA); experiment: Collagen‐induced arthritis in mice; assay type: in vivo, DBA1/J male mice; conditions: for reduction of clinical scores compared with vehicle controls: at study termination; for group mean histologic severity score of paws: vehicle 10.4
HBL‐1 cells = experiment: Cell cytotoxicity assay; assay type: cell-based; conditions: HBL1, 96 h, read-out: IC50 cell proliferation HBL‐1
mutant BTK (C481S) [20] = conditions: cited from earlier work
arthritis = conditions: cited from earlier work
U2932 cell line = conditions: cited from earlier work
IL‐6 = conditions: read-out: IC50 for IL‐6 inhibition; in‐vitro assays; cited from earlier work
[21] = male, Wistar, plasma, iv, 1 mg/kg
[22] = male, Wistar, plasma, po, 3 mg/kg

mClint [1]: 1.28 mL/min/gm liver
% metabolized ([1]; 1 µmol/L, 30 minutes, NADPH): ≤ 32%
IC50 (CYP2C8): 5000 to 15000 nM and 5500 nM
IC50 (CYP1A2): > 30000 nM
IC50 (TNF‐α secretion): 1 nM
fraction unbound (Plasma protein binding [2]): 0.088
IC50 (CYP2D6): > 30000 nM
IC50 (phospho‐PLCγ2 (Y1217)): 114 nM
IC50 (CYP2C19): > 30000 nM
mClint [5]: 0.46 mL/min/gm liver
% metabolized ([5]; 1 µmol/L, 30 minutes, NADPH): up to 13%
IC50 (BTK [6]): 1 nM
Vd [7, 21]: 0.88 ± 0.12 L/kg
clearance [7, 21]: 36 ± 7.8 mL/min/kg
half-life [7, 21]: 36 ± 6 min
AUC [7, 22]: 908 ± 170 ng·h/mL
bioavailability [7, 22]: 75%
half-life [7, 22]: 132 ± 78 min
Cmax ([7]; male, Wistar, plasma, po, 3 mg/kg, peak plasma concentration (Cmax), rats, oral (3 mg/mg), mean ± SD, n = 4): 650 ± 222 ng/mL
exposure to free drug at efficacy dose ([7]; considering 91% PPB): 360 nmol/L
Ki (BTK‐WT): 14 nM
IC50 (phospho‐BTK (Y223); Homo sapiens, THP-1, 1 h, read-out: IC50 BTK‐phosphorylation (Y223)): 2 nM
IC50 (CYP3A4): > 30000 nM
Papp at 2 µmol/L [8]: 3.3 ×10⁻⁶ cm/s
efflux transporter substrate (Caco‐2 cell monolayers): substrate of efflux transporters
mClint [9]: 2.62 mL/min/gm liver
% metabolized ([9]; 1 µmol/L, 30 minutes, NADPH): 55%
mCLlint [10]: 3.49 mL/min/gm liver
% metabolized ([10]; 1 µmol/L, 30 minutes, NADPH): 66%
IC50 (IL‐8 secretion): 0.2 nM
IC50 (HCK): > 10000 nM
mClint [12]: 0.67 mL/min/gm liver
% metabolized ([12]; 1 µmol/L, 30 minutes, NADPH): ≤ 18%
IC50 (TEC): 38 nM
clearance ([13]; iv, 1 mg/kg): 39.5 mL/min/kg
half-life ([13]; iv, 1 mg/kg): 24.6 min
AUC ([13]; po, 3 mg/kg): 590 ng·h/mL
Cmax ([13]; po, 3 mg/kg): 703 ng/mL
Tmax ([13]; po, 3 mg/kg): 15 min
half-life ([13]; po, 3 mg/kg): 45.6 min
IC50 (IL‐6 secretion): 0.4 nM
fraction unbound (Plasma protein binding [14]): 0.016
IC50 (CYP2C9): 5000 to 15000 nM and 14700 nM
ZYBT1 still bound with BTK after washout (BTK [15]): more than 95%
IC50 (BTK [16]): 27 nM
IC50 (JAK3): > 10000 nM
IC50 (mutant BTK (C481S) [17]): 14 nM
solubility (pH dependent solubility; buffer, pH 4.5, aqueous buffer): < 2 µM
solubility (pH dependent solubility; buffer, pH 6.8, aqueous buffer): < 2 µM
solubility (pH dependent solubility; pH 1.2, simulated gastric fluid): 500 µM (≈ 247 µg/mL)
solubility (pH dependent solubility; purified water, water): < 2 µM
SMILES: C=CC(=O)N1CC2CC(n3nc(-c4ccc(C(=O)Nc5ccccn5)cc4)c4c(N)ncnc43)CC2C1 (centres unmarked) [ZYBT1, 4‐(1‐(2‐acryloyloctahydrocyclopenta[c]pyrrol‐5‐yl)‐4‐amino‐1H‐pyrazolo[3,4‐d]pyrimidin‐3‐yl)‐N‐(pyridin‐2‐yl)benzamide]
IC50 (Raji cells): 15000 nM
hematological and biochemical profile, clinical signs and body weight [3]: did not show any change in hematological and biochemical profile, clinical signs and body weight
tumor growth inhibition ([4]; 1.5 mg/kg BID oral): 10%
tumor growth inhibition ([4]; 3 mg/kg BID oral): 50%
anti‐tumor efficacy compared with ibrutinib ([4]; 12.5 mg/kg, BID, intra peritoneal, 14 consecutive days (Figure S2)): comparable; also recorded: slightly better potency compared to Ibrutinib
tumor growth inhibition ([4]; 15 mg/kg BID oral): 88%
anti‐tumor efficacy compared with acalabrutinib ([4]; 15 mg/kg, BID, p.o., 14 consecutive days (Figure S3)): much better efficacy than acalabrutinib
effect on body weight ([4]; 1.5, 3 & 15 mg/kg, p.o, BID, 20 days (Figure S4)): does not have any effect on the body weight
IC50 (U2932 cells; U2932, 96 h, read-out: IC50 cell proliferation U2932): 961 nM
IC50 (U2932 cells; U2932, read-out: IC50 U2932): ~1000 nM
fold resistance of U2932 versus TMD‐8 and HBL‐1 (U2932 cells; within ABC‐DLBCL subgroup): ~ 1000 fold
phosphorylation of BTK after washout (phospho‐BTK (Y223); THP‐1 cells, 500 nmol/L for 1 hour, washout, 24 hours): completely abolished
concentration that completely abrogates phosphorylation of tyrosine 223 (phospho‐BTK (Y223); THP‐1 cells, one hour): ≥ 30 nmol/L
time for which cell killing is maintained after drug wash‐off (TMD8 cells [11]; 25 nmol/L): at least 48 hours
inhibition of paw volume (SCW induced arthritis; 75 mg/kg dose): complete inhibition of paw volume
serum levels of IL‐6 (SCW induced arthritis; 0.2, 1, 5, 25, 75 mg/kg): reduced with the treatment in a dose‐dependent manner
body weight (SCW induced arthritis; 0.2, 1, 5, 25, 75 mg/kg, SCW control animals lost weight): restored the body weight in a dose dependent manner
IC50 (TMD8 cells [18]): 1 nM
reduction of clinical scores compared with vehicle controls ([19]; 0.125 mg/kg once daily oral): 22%
group mean histologic severity score of paws ([19]; 0.125 mg/kg once daily): 5
reduction of clinical scores compared with vehicle controls ([19]; 0.25 mg/kg once daily oral): 61%
group mean histologic severity score of paws ([19]; 0.25 mg/kg once daily): 3.75
reduction of clinical scores compared with vehicle controls ([19]; 0.5 mg/kg once daily oral): 93%
group mean histologic severity score of paws ([19]; 0.5 mg/kg once daily): 1
efficacy in arthritis model compared with ibrutinib ([19]; 0.6 mg/kg ZYBT1 versus 3 mg/kg Ibrutinib): comparable efficacy as 3 mg/kg Ibrutinib
reduction of clinical scores compared with vehicle controls ([19]; 1 mg/kg once daily oral): 97%
group mean histologic severity score of paws ([19]; 1 mg/kg once daily): 0.2
body weight change ([19]; 0.125, 0.25, 0.5 & 1 mg/kg, OD, end of the study (Figure S5)): did not observe any body weight change
lowest, significantly efficacious dose ([19]; once daily): 0.25 mg/kg
time to improvement in clinical signs of disease after initiation of dosing ([19]; once daily oral dosing): 2 days
IC50 (HBL‐1 cells): 12 nM

SMILES: CC#CC(=O)N1CC[C@@H](n2c(=O)n(-c3ccc(Oc4ccccc4)cc3)c3c(N)ncnc32)C1 [ONO/GS‐4050]
activity for the mutant BTK (mutant BTK (C481S) [20]): appreciable activity

SMILES: CC#CC(=O)N1CCC[C@H]1c1nc(-c2ccc(C(=O)Nc3ccccn3)cc2)c2c(N)nccn12 [ACP‐196]
activity for the mutant BTK (mutant BTK (C481S) [20]): appreciable activity

SMILES: C=CC(=O)N1CCC[C@@H](n2nc(-c3ccc(Oc4ccccc4)cc3)c3c(N)ncnc32)C1 [ibrutinib]
IC50 (mutant BTK (C481S) [20]; read-out: IC50 mutant BTK, C481S): 1000 nM
ED50 anti‐arthritic activity (arthritis): 2.6 mg/kg/day
sensitivity of U2932 cell line to cytotoxicity (U2932 cell line): resistant
IC50 (IL‐6): 3.9 nM

SMILES: Cc1nc(Nc2ncc(C(=O)Nc3c(C)cccc3Cl)s2)cc(N2CCN(CCO)CC2)n1 [dasatinib]
cytotoxic effect after drug wash‐off (TMD8 cells [11]; 100 nmol/L): failed to exert its effect when washed off; also recorded: completely lost its cytotoxic potential
